Results published in PMC8880098, “Synthesis, Antibacterial Evaluation, and Computational Studies of a Diverse Set of Linezolid Conjugates” (Pharmaceuticals, 2022).
Converted amounts (≈) assume the structure as drawn. Like-named read-outs stand apart in the source and are kept apart here.

What was measured:
[1] = test system: Staphylococcus aureus ATCC 6538; set-up: method as in PMID 27025339; details: reference fluoroquinolones, cited from earlier work; for MIC (μmol), S. Aureus (ATCC 6538): value in parentheses
[2] = test system: Pseudomonas aeruginosa ATCC 15692; set-up: method as in PMID 27025339; details: reference fluoroquinolones, cited from earlier work; for MIC (μmol), P. Aeruginosa (ATCC 15692): value in parentheses
[3] = test system: Bacillus subtilis ATCC 6633; assay: Antibacterial MIC, microdilution susceptibility test (CLSI); assay type: cell-based; details: Bacillus subtilis, ATCC6633, 24 h, Mueller–Hinton broth, 37 °C, 24 h; read-out: MIC, μg/mL ± SE, B. Subtilis (ATCC 6633)
Text: (§1) The synthesized linezolid conjugates (3a–k, 5a–f, 7a–c, 9a–c, 11a–f, 13, and 15) were subjected for antimicrobial properties determination against Gram-positive (Staphylococcus aureus ATCC 6538, Bacillus subtilis ATCC 6633) and Gram-negative (Pseudomonas aeruginosa ATCC 15692, Escherichia coli ATCC 47076) bacteria by the standard technique.
(§2) Antibacterial properties of the synthesized compounds (3a–k, 5a–f, 7a–c, 9a–c, 11a–f, 13 and 15) were screened against Gram-positive (Staphylococcus aureus ATCC 6538, Bacillus subtilis ATCC 6633) and Gram-negative (Pseudomonas aeruginosa ATCC 15,692 and Escherichia coli ATCC 47076) bacteria utilizing the standard technique. Linezolid was used as a standard reference/drug in the current study. The tested bacterial strains were obtained from MERCIN Center, Faculty of Agriculture, Ain Shams University, Cairo, Egypt.
(§3) To determine the antibacterial activity, stock solutions of the tested compounds and standard reference were prepared with up to 100% DMSO and stored at […]. If necessary, the solutions were heated to 40–60 °C before testing to facilitate complete dissolution. Double distilled water was used in all dilutions prepared. […] A microdilution susceptibility test was used for MIC determination (Mueller–Hinton broth in 96-well plates) according to the CLSI (the Clinical and Laboratory Standards Institute, Malvern, PA, USA). The bacterial inoculum was adjusted to approximately 2.5–3 × 10^4 cells/mL in Mueller–Hinton broth and incubated in a ratio of 1:1 with the test derivatives in polystyrene 96-well flat-bottom microplates. Positive growth control (without test derivatives) and negative control (without bacteria) were included. The microplates were placed in an incubator set to 37 °C for 24 h. Absorbance was measured at 620 nm at the end of the incubation period. The cut-off level for follow-up studies was defined as a minimum of 90% inhibition of growth compared to the untreated sample. Experiments were conducted once in triplicate. For selected compounds, minimum inhibitory concentration (MIC) values were determined by dose–response experiments. Experiments were performed at least twice, in triplicate per concentration tested.

[4] = test system: Escherichia coli ATCC 47076; assay: as above; assay type: cell-based
Text: as §1, §2, §3

[5] = test system: Pseudomonas aeruginosa ATCC 15692; assay: as above; assay type: cell-based
Text: as §1, §2, §3

[6] = test system: Staphylococcus aureus ATCC 6538; assay: as above; assay type: cell-based; details: Staphylococcus aureus, ATCC6538, 24 h, Mueller–Hinton broth, 37 °C, 24 h; read-out: MIC, μg/mL ± SE, S. Aureus (ATCC 6538)
Text: as §1, §2, §3

[7] = test system: Bacillus subtilis ATCC 6633; assay: microbe, parasite or virus in culture; set-up: species or system bacteria; Broth microdilution MIC in Mueller-Hinton broth, absorbance at 620 nm; details: ATCC6633, 24 h, read-out: Observed MIC, uM (B. subtilis)
Text: as §3, with “Antibacterial properties of the synthesized compounds (3a–k, 5a–f, 7a–c, 9a–c, 11a–f, 13 and 15) were screened against Gram-positive (Staphylococcus aureus ATCC 6538, Bacillus subtilis ATCC 6633) and Gram-negative (Pseudomonas aeruginosa ATCC 15,692 and Escherichia coli ATCC 47076) bacteria utilizing the standard technique. Linezolid was used as a standard reference/drug in the current study. The tested bacterial strains were obtained from MERCIN Center, Faculty of Agriculture, Ain Shams University, Cairo, Egypt. To” for “To”

[8] = test system: Staphylococcus aureus ATCC 6538; assay: microbe, parasite or virus in culture; set-up: species or system bacteria; Broth microdilution MIC in Mueller-Hinton broth, absorbance at 620 nm; details: ATCC6538, 24 h, read-out: Observed MIC, uM (S. aureus)
Text: as §3, with “Antibacterial properties of the synthesized compounds (3a–k, 5a–f, 7a–c, 9a–c, 11a–f, 13 and 15) were screened against Gram-positive (Staphylococcus aureus ATCC 6538, Bacillus subtilis ATCC 6633) and Gram-negative (Pseudomonas aeruginosa ATCC 15,692 and Escherichia coli ATCC 47076) bacteria utilizing the standard technique. Linezolid was used as a standard reference/drug in the current study. The tested bacterial strains were obtained from MERCIN Center, Faculty of Agriculture, Ain Shams University, Cairo, Egypt. To” for “To”

[9] = ATCC47076, Mueller–Hinton broth, 37 °C, 24 h, read-out: MIC, μg/mL ± SE, E. Coli (ATCC 47076)
[10] = ATCC47076, value in parentheses, read-out: MIC (μmol), E. Coli (ATCC 47076) (converted)
[11] = ATCC15692, Mueller–Hinton broth, 37 °C, 24 h, read-out: MIC, μg/mL ± SE, P. Aeruginosa (ATCC 15692)
[12] = ATCC15692, value in parentheses, read-out: MIC (μmol), P. Aeruginosa (ATCC 15692) (converted)

Structure (SMILES) | MIC, μg/mL ± SE, S. Aureus (ATCC 6538) [1] [µg/mL] | MIC (μmol), S. Aureus (ATCC 6538) [1] [µmol] | MIC, μg/mL ± SE, P. Aeruginosa (ATCC 15692) [2] [µg/mL] | MIC (μmol), P. Aeruginosa (ATCC 15692) [2] [µmol] | MIC [3] [µg/mL] | MIC [4, 9] [µg/mL] | MIC [4, 10] [µM] | MIC [5, 11] [µg/mL] | MIC [5, 12] [µM] | MIC [6] [µg/mL] | melting point [°C] | MIC [7] [µM] | MIC [8] [µM]
O=C(O)c1cn(C2CC2)c2cc(N3CCNCC3)c(F)cc2c1=O [Ciprofloxacin] | 1250.0 ± 9.6 (≈ 3770 µM) | 3772.4 | 4.8 ± 0.5 (≈ 14.5 µM) | 14.5 | – | – | – | – | – | – | – | – | –
O=C(NC[C@H]1CN(c2ccc(N3CCOCC3)c(F)c2)C(=O)O1)c1cccc([N+](=O)[O-])c1Cl [Compound 5f, (S)-2-Chloro-N-((3-(3-fluoro-4-morpholinophenyl)-2-oxooxazolidin-5-yl)methy-l)-3-nitrobenzamide] | – | – | – | – | 4 ± 0.3 (≈ 8.35 µM) | 32 ± 0.6 | 66.8 | 32 ± 1.4 | 66.8 | 8 ± 0.2 (≈ 16.7 µM) | 200 to 202 | 8.35 (≈ 4 µg/mL) | 16.7 (≈ 8 µg/mL)
O=C(NC[C@H]1CN(c2ccc(N3CCOCC3)c(F)c2)C(=O)O1)c1cccnc1 [Compound 7b, (S)-N-((3-(3-Fluoro-4-morpholinophenyl)-2-oxooxazolidin-5-yl)methyl)nicotinamide] | – | – | – | – | 2 ± 0.1 (≈ 4.99 µM) | 32 ± 1 | 79.9 | 32 ± 1.2 | 79.9 | 8 ± 0.2 (≈ 20 µM) | 182 to 184 | 5 (≈ 2 µg/mL) | 20 (≈ 8 µg/mL)
O=C(NC[C@H]1CN(c2ccc(N3CCOCC3)c(F)c2)C(=O)O1)c1cnccn1 [Compound 7c, (S)-N-((3-(3-Fluoro-4-morpholinophenyl)-2-oxooxazolidin-5-yl)methyl)pyrazine-2-carboxamide] | – | – | – | – | 2 ± 0.1 (≈ 4.98 µM) | 32 ± 0.7 | 79.7 | 32 ± 1.1 | 79.7 | 8 ± 0.1 (≈ 19.9 µM) | 190 to 192 | 4.98 (≈ 2 µg/mL) | 19.9 (≈ 8 µg/mL)
CC(C)C[C@H](NC(=O)c1cnccn1)C(=O)NC[C@H]1CN(c2ccc(N3CCOCC3)c(F)c2)C(=O)O1 [Compound 9a, N-((S)-1-((((S)-3-(3-Fluoro-4-morpholinophenyl)-2-oxooxazolidin-5-yl)methyl)amino) -4-methyl-1-oxopentan-2-yl)pyrazine-2-carboxamide] | – | – | – | – | 32 ± 2 (≈ 62.2 µM) | 32 ± 1.6 | 62.2 | 32 ± 1.3 | 62.2 | 32 ± 0.4 (≈ 62.2 µM) | 90 to 92 | 62.2 (≈ 32 µg/mL) | 62.2 (≈ 32 µg/mL)
CC(C)[C@H](NC(=O)c1cnccn1)C(=O)NC[C@H]1CN(c2ccc(N3CCOCC3)c(F)c2)C(=O)O1 [Compound 9b, N-((S)-1-((((S)-3-(3-Fluoro-4-morpholinophenyl)-2-oxooxazolidin-5-yl)methyl)amino) -3-methyl-1-oxobutan-2-yl)pyrazine-2-carboxamide] | – | – | – | – | 32 ± 1.3 (≈ 63.9 µM) | 32 ± 3.4 | 63.9 | 32 ± 2.5 | 63.9 | 32 ± 1.7 (≈ 63.9 µM) | 94 to 96 | 63.9 (≈ 32 µg/mL) | 63.9 (≈ 32 µg/mL)
O=C(N[C@@H](Cc1ccccc1)C(=O)NC[C@H]1CN(c2ccc(N3CCOCC3)c(F)c2)C(=O)O1)c1cnccn1 [Compound 9c, N-((S)-1-((((S)-3-(3-Fluoro-4-morpholinophenyl)-2-oxooxazolidin-5-yl)methyl)amino) -1-oxo-3-phenylpropan-2-yl)pyrazine-2-carboxamide] | – | – | – | – | 32 ± 0.5 (≈ 58.3 µM) | 32 ± 1 | 58.3 | 32 ± 0.8 | 58.3 | 32 ± 0.9 (≈ 58.3 µM) | 172 to 174 | 58.3 (≈ 32 µg/mL) | 58.3 (≈ 32 µg/mL)
O=C1O[C@@H](CNCc2ccc(F)cc2F)CN1c1ccc(N2CCOCC2)c(F)c1 [Compound 11e, (S)-5-[{(2,4-Difluorobenzyl)amino}methyl]-3-(3-fluoro-4-morpholinophenyl) oxazolid-ine-2-one] | – | – | – | – | 32 ± 1.3 (≈ 75.9 µM) | 32 ± 0.3 | 75.9 | 32 ± 0.5 | 75.9 | 32 ± 0.2 (≈ 75.9 µM) | 74 to 76 | 75.9 (≈ 32 µg/mL) | 75.9 (≈ 32 µg/mL)
O=C(CCCC[C@@H]1SC[C@@H]2NC(=O)N[C@@H]21)NC[C@H]1CN(c2ccc(N3CCOCC3)c(F)c2)C(=O)O1 [Compound 15, N-(((S)-3-(3-Fluoro-4-morpholinophenyl)-2-oxooxazolidin-5-yl)methyl)-5-((3aS, 4S, 6aR)-2-oxohexahydro-1H-thieno [3,4-d]imidazol-4-yl)pentanamide] | – | – | – | – | 32 ± 0.2 (≈ 61.3 µM) | 32 ± 0.7 | 61.3 | 32 ± 0.3 | 61.3 | 32 ± 0.4 (≈ 61.3 µM) | 222 to 224 | 61.3 (≈ 32 µg/mL) | 61.3 (≈ 32 µg/mL)
CCn1cc(C(=O)O)c(=O)c2cc(F)c(N3CCNCC3)cc21 [Norfloxacin] | 1250.0 ± 14.2 (≈ 3910 µM) | 3914.3 | 4.8 ± 0.2 (≈ 15 µM) | 15.0 | – | – | – | – | – | – | – | – | –
